These results are taken from paper PMC9112662, “Scaffold stability and P14′ residue steric hindrance in the differential inhibition of FXIIa by Aedes aegypti trypsin inhibitor versus Infestin-4” (Bioscience Reports, 2022).

In experiment [1] the target is human Factor XIIa (human) (UniProt P00748).
The target of experiment [2] is plasmin. The note with it: cited from earlier work.
Experiment [3] concerns the target FXIIa. The note with it: cited from earlier work.
Experiment [4] deals with T1, FXIIa (Homo sapiens, UniProt P00748).
T1 construct: gene F12; human FXIIa (Merck)
T1 sequence (P00748 373-615): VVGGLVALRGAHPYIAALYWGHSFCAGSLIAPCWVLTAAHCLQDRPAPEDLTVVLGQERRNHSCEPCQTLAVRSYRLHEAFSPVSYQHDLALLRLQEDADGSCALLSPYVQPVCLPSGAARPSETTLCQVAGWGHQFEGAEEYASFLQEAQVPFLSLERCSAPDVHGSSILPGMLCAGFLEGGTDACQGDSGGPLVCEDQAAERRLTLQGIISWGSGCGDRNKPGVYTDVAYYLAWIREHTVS
The note with it: n = 3; read-out: IC50 values toward FXIIa. On the procedure:
For IC50 determination, FXIIa was pre-incubated with different concentrations of inhibitors. The generation of p-nitroaniline (pNA) was determined by measuring the absorbance at 405 nm using a absorbance plate reader (Tecan; Männedorf, Switzerland). The reaction mixture consisted of 40 µl FXIIa (10 nM), 40 µl inhibitor, and 40 µl chromogenic substrate (1 mM). All reaction components were prepared in 50 mM Tris pH 7.4 containing 100 mM NaCl.
For IC50 calculations, log[inhibitor concentration] vs. percentage normalized inhibition was plotted using a non-linear regression curve function, created with Kaleidagraph 4.5.2 (Synergy Software; Reading, PA). All data represent the mean ± SD for triplicate values.

In experiment [5] the target is thrombin. The note with it: cited from earlier work. From the text: The Kazal-type inhibitor, Aedes aegypti trypsin inhibitor (AaTI), is a novel trypsin Kazal-type inhibitor from Aedes aegypti, the primary vector of mosquito-borne diseases like dengue. […] AaTI has a similar structure to that of Inf4 [19], and with only a 3-residue difference in the reactive-site loop sequence. The reactive-site loop sequence makes most-if not all-of the direct contacts with the protease and is thought to be the sole factor that govern the inhibitor specificity.

Positions of bridges follow the written chain, without caps; N, C: chain ends. No end group written: not given here.

In experiment [1], “Wild-type Infestin-4 (domain or fragment)” displayed an IC50 of inhibition of FXIIa activity, chromogenic assay (substrate S-2302) of 3.1 nM.

For “KEVRNPCACFRNYVPVCGSDGKTYGNPCMLNCAAQTKVPGLKLVHEGRCQRSNVEQF (disulfide 7-32, 9-28, 17-49) [Wild-type Inf4]”, the inhibition constant Ki in experiment [2] was 2.1 nM; in experiment [3] it was 0.128 nM.

Turning to “AaTI with C1C3 region of Inf4 and F10A (His-tagged) [AaTI_Inf4 C1C3+F10A]”, in experiment [4], the IC50 came to 610 ± 206 nM.

In turn, Inf4_N12I (domain or fragment) came in with an IC50 of inhibition of FXIIa activity, chromogenic assay (substrate S-2302) in experiment [1] of 8.4 nM.

Turning to “Aedes aegypti trypsin inhibitor, RSDAERGVCACPRIYMPVCGSNLKTYNNDCLLRCEINSDLGRANNLRKIADQACDNLTDNVNDFIPQEY (His-tagged) [Wild-type AaTI]”, the results for the inhibition constant (Ki) in experiment [2] and in experiment [5] were 3.8 nM and 320 nM, respectively. Also, the IC50 in experiment [4] was over 10000 nM.

“AaTI with C1C3 and C3C4 regions of Inf4 (His-tagged) [AaTI_Inf4 C1C3+C3C4]”: in experiment [4], the half-inhibitory concentration (IC50) turned out to be 147 ± 42.9 nM.

For the substance “AaTI with C1C3 region of Inf4 (His-tagged) [AaTI_Inf4 C1C3]”, the concentration for half-maximal inhibition (IC50) in experiment [4] stood at 4680 ± 3830 nM.

With Inf4_V14M (domain or fragment), the IC50 of inhibition of FXIIa activity, chromogenic assay (substrate S-2302) in experiment [1] is 9.9 nM.

As to “AaTI with C1C3 and C5C6 regions of Inf4 and N27G (His-tagged) [AaTI_Inf4 C1C3+C5C6+N27G]”, the concentration for half-maximal inhibition (IC50) in experiment [4] stood at 11.4 ± 3.1 nM.

In the case of “AaTI with C1C3 and C5C6 regions of Inf4 (His-tagged) [AaTI_Inf4 C1C3+C5C6]”, the IC50 in experiment [4] is 113 ± 16.7 nM.

As for “AaTI with C1C3 region of Inf4 and N27G (His-tagged) [AaTI_Inf4 C1C3+N27G]”, the 50% inhibitory concentration (IC50) in experiment [4] was 58 ± 14.8 nM.

As to “Inf4 with C6 region replaced with that of AaTI (His-tagged) [Inf4_AaTI C6]”, the IC50 in experiment [4] is 6.2 ± 0.8 nM.

For the substance Inf4_F10P (domain or fragment), the IC50 of inhibition of FXIIa activity, chromogenic assay (substrate S-2302) in experiment [1] came to 11.6 nM.
